Experimental findings from ChEMBL document CHEMBL3217572, “Preparation and evaluation of BBB-permeable trehalose derivatives as potential therapeutic agents for Huntington's disease” (Medchemcomm, 2013) are described below.

The structures appear in SMILES notation. Activity calls are given as the source filed them. The calls are words filed in the database; no cut-off is given here. Some results are limits rather than exact numbers.

Series [1] concerns the target Huntingtin (Homo sapiens) (UniProt P42858). Description: Inhibition of N-terminal GFP-tagged Htt-exon1-Q103 (unknown origin) transfected in Neuro2a cells assessed as reduction of Htt-Q103 aggregate formation at 100 uM by fluorescence microscopic analysis. It counts as cell-based.
Series [2] has the same target. Kind of series: Inhibition of N-terminal GFP-tagged Htt-exon1-Q103 (unknown origin) transfected in HEK293A cells assessed as reduction of Htt-Q103 aggregate formation at 200 uM by filter trap assay. It counts as cell-based. The conditions noted are these: HEK293-A.
Series [3] shares this target. Kind of series: Inhibition of N-terminal GFP-tagged Htt-exon1-Q103 (unknown origin) transfected in HEK293A cells assessed as reduction of Htt-Q103 aggregate formation at 50 uM after 3 days by fluorescence microscopic analysis. It counts as cell-based. The settings on record: HEK293-A.
Series [4] relates to Mus musculus. Kind of series: Inhibition of mutated huntingtin aggregate formation in liver homogenate of R6/2 transgenic mouse at 1%, po after 4 to 8 weeks by Western blotting analysis. It counts as functional, organism-based. (In general: Immunoblotting shows a protein as a band on a membrane.)
In series [5] the test system is Mus musculus. Description: Inhibition of mutated aggregate formation in brain homogenate of R6/2 transgenic mouse at 1%, po by Hoechst staining-based by immunohistochemistry. It counts as functional, organism-based.
Series [6] has as its system Mus musculus. Kind of series: Toxicity in R6/2 transgenic mouse assessed as body weight loss at 1%, po measured on week 12. The class given is organism-based. The conditions noted are these: in vivo.
In series [7] the test system is Mus musculus. Description: Neuroprotective activity in R6/2 transgenic mouse assessed as increased mean survival time at 1%, po (reference value: 93 days). The class given is functional.
Series [8] has as its system Brain. Kind of series: Biodistribution in C57BL/6 mouse brain at 454 mg/kg, po after 24 hrs by fluorescence microscopic analysis. The conditions noted are these: in vivo. Also on record: dose 454 mg/kg, route oral. The class given is ADME, organism-based.
For the next series, the system named is Spleen. Description: Biodistribution in C57BL/6 mouse spleen at 454 mg/kg, po after 24 hrs by fluorescence microscopic analysis. It counts as ADME, organism-based. Set-up: dose 454 mg/kg, route oral. The conditions noted are these: in vivo.
The subject of the next series is Kidney. Description: Biodistribution in C57BL/6 mouse kidney at 90.9 mg/kg, ip after 60 mins by fluorescence microscopic analysis. The class given is ADME, organism-based. Also on record: dose 90.9 mg/kg, route intraperitoneal. The conditions noted are these: in vivo, 1 h.
Series [9] relates to Brain. Description: Biodistribution in C57BL/6 mouse brain at 90.9 mg/kg, ip after 60 mins by fluorescence microscopic analysis. The class given is ADME, organism-based. The conditions noted are these: in vivo, 1 h. Also on record: dose 90.9 mg/kg, route intraperitoneal.
Series [10] deals with Mus musculus. Description: Toxicity in C57BL/6 mouse at 454 mg/kg, po. It counts as organism-based. Set-up: dose 454 mg/kg, route oral. The settings on record: in vivo.
Series [11] concerns Mus musculus. Kind of series: Toxicity in C57BL/6 mouse at 90.9 mg/kg, ip. It counts as organism-based. Also on record: dose 90.9 mg/kg, route intraperitoneal. The conditions noted are these: in vivo.
The test system of series [12] is HeLa. Description: Cellular uptake in human HeLa cells at 5 to 10 uM after 10 mins by FACS analysis. The class given is ADME, cell-based. (Flow cytometry measures light scatter and fluorescence of single cells or particles in a stream.)
Series [13] is described as follows: Cellular uptake in cytoplasm of human HeLa cells at 10 uM after 10 mins by confocal microscopic analysis in presence mitotracker. It counts as ADME, cell-based.
The nature of series [14]: Cellular uptake in cytoplasm of human HeLa cells at 1 uM up to 1 hr by confocal microscopic analysis. It counts as ADME, cell-based.
Series [15] can be described thus: Cellular uptake in nucleus of human HeLa cells at 1 uM up to 1 hr by confocal microscopic analysis. The class given is ADME, cell-based.
Series [16] can be described thus: Solubility in water. The settings on record: buffer. The class given is physicochemical.
The subject of a further series is RAW264.7. Kind of series: Cytotoxicity against mouse RAW264.7 cells by MTT assay. The class given is cell-based. (Tetrazolium dyes change colour on reduction, which living cells bring about.)
Series [17] relates to HeLa. Kind of series: Cytotoxicity against human HeLa cells by MTT assay. It counts as cell-based.
Series [18] is described as follows: Cytotoxicity against african green monkey COS7 cells by MTT assay. It counts as cell-based. The conditions noted are these: Chlorocebus aethiops, COS-7.
Series [19] has as its target Huntingtin (Homo sapiens) (UniProt P42858). Description: Inhibition of N-terminal GFP-tagged Htt-exon1-Q25 (unknown origin) transfected in HEK293A cells assessed as reduction of Htt-Q103 aggregate formation at 50 uM after 3 days by fluorescence microscopic analysis. It counts as cell-based. The settings on record: HEK293-A.
Series [20] has as its system Mus musculus. Kind of series: Neuroprotective activity in R6/2 transgenic mouse assessed as increased locomotory activity at 0.4%, po measured for 20 mins. The class given is functional, organism-based.
For series [21], the system named is Mus musculus. Description: Neuroprotective activity in R6/2 transgenic mouse assessed as reduction of foot-clasping posture at 0.4%, po measured on week 8. The class given is functional, organism-based.
The target in series [22] is Huntingtin (Homo sapiens) (UniProt P42858). Kind of series: Inhibition of N-terminal Htt-exon1-Q103 (unknown origin) transfected in mouse Neuro2a cells assessed as decrease in soluble and insoluble aggregate formation by Western blotting analysis. It counts as cell-based.
Series [23] has the same target. Kind of series: Inhibition of N-terminal GFP-tagged Htt-exon1-Q103 (unknown origin) transfected in HEK293A cells assessed as reduction of Htt-Q103 aggregate formation by filter trap assay. It counts as cell-based. The conditions noted are these: HEK293-A.
The target is the same in series [24]. Description: Inhibition of N-terminal Htt-exon1-Q103 (unknown origin) transfected in HEK293A cells at 50 uM by Western blotting analysis. The class given is cell-based. The settings on record: HEK293-A.
The test system of series [25] is Mus musculus. Description: Neuroprotective activity in wild type mouse assessed as behavioral pattern at 0.4%, po. It counts as ADME, organism-based. The conditions noted are these: in vivo.
The test system of series [26] is Mus musculus. Description: Inhibition of mutated aggregate formation in brain homogenate of R6/2 transgenic mouse at 0.4%, po by Hoechst staining-based by immunohistochemistry. The class given is functional, organism-based.
Series [27] relates to Mus musculus. Description: Inhibition of mutated huntingtin aggregate formation in liver homogenate of R6/2 transgenic mouse at 0.4%, po after 4 to 8 weeks by Western blotting analysis. It counts as functional, organism-based.
Series [28] relates to Mus musculus. Description: Inhibition of mutated huntingtin aggregate formation in brain homogenate of R6/2 transgenic mouse at 0.4%, po by Western blotting analysis. The class given is functional, organism-based.
The test system of series [29] is Mus musculus. Kind of series: Toxicity in R6/2 transgenic mouse assessed as body weight loss at 0.4%, po measured on week 12. It counts as organism-based. The settings on record: in vivo.
In series [30] the test system is Mus musculus. Description: Toxicity in R6/2 transgenic mouse assessed as increase in body weight at 0.4%, po measured up to 9 weeks. It counts as organism-based. The conditions noted are these: in vivo, 1512 h.
Series [31] has as its system Mus musculus. Kind of series: Neuroprotective activity in R6/2 transgenic mouse assessed as increase in mean survival time at 0.4%, po (reference value: 93 days). It counts as functional.
Series [32] has as its system Mus musculus. Description: Neuroprotective activity in R6/2 transgenic mouse assessed as improved motor coordination and balance at 0.4%, po measured up to 8 weeks by rotarod test. The class given is functional, organism-based.

Sequence of Huntingtin (Homo sapiens) (P42858 whole entry): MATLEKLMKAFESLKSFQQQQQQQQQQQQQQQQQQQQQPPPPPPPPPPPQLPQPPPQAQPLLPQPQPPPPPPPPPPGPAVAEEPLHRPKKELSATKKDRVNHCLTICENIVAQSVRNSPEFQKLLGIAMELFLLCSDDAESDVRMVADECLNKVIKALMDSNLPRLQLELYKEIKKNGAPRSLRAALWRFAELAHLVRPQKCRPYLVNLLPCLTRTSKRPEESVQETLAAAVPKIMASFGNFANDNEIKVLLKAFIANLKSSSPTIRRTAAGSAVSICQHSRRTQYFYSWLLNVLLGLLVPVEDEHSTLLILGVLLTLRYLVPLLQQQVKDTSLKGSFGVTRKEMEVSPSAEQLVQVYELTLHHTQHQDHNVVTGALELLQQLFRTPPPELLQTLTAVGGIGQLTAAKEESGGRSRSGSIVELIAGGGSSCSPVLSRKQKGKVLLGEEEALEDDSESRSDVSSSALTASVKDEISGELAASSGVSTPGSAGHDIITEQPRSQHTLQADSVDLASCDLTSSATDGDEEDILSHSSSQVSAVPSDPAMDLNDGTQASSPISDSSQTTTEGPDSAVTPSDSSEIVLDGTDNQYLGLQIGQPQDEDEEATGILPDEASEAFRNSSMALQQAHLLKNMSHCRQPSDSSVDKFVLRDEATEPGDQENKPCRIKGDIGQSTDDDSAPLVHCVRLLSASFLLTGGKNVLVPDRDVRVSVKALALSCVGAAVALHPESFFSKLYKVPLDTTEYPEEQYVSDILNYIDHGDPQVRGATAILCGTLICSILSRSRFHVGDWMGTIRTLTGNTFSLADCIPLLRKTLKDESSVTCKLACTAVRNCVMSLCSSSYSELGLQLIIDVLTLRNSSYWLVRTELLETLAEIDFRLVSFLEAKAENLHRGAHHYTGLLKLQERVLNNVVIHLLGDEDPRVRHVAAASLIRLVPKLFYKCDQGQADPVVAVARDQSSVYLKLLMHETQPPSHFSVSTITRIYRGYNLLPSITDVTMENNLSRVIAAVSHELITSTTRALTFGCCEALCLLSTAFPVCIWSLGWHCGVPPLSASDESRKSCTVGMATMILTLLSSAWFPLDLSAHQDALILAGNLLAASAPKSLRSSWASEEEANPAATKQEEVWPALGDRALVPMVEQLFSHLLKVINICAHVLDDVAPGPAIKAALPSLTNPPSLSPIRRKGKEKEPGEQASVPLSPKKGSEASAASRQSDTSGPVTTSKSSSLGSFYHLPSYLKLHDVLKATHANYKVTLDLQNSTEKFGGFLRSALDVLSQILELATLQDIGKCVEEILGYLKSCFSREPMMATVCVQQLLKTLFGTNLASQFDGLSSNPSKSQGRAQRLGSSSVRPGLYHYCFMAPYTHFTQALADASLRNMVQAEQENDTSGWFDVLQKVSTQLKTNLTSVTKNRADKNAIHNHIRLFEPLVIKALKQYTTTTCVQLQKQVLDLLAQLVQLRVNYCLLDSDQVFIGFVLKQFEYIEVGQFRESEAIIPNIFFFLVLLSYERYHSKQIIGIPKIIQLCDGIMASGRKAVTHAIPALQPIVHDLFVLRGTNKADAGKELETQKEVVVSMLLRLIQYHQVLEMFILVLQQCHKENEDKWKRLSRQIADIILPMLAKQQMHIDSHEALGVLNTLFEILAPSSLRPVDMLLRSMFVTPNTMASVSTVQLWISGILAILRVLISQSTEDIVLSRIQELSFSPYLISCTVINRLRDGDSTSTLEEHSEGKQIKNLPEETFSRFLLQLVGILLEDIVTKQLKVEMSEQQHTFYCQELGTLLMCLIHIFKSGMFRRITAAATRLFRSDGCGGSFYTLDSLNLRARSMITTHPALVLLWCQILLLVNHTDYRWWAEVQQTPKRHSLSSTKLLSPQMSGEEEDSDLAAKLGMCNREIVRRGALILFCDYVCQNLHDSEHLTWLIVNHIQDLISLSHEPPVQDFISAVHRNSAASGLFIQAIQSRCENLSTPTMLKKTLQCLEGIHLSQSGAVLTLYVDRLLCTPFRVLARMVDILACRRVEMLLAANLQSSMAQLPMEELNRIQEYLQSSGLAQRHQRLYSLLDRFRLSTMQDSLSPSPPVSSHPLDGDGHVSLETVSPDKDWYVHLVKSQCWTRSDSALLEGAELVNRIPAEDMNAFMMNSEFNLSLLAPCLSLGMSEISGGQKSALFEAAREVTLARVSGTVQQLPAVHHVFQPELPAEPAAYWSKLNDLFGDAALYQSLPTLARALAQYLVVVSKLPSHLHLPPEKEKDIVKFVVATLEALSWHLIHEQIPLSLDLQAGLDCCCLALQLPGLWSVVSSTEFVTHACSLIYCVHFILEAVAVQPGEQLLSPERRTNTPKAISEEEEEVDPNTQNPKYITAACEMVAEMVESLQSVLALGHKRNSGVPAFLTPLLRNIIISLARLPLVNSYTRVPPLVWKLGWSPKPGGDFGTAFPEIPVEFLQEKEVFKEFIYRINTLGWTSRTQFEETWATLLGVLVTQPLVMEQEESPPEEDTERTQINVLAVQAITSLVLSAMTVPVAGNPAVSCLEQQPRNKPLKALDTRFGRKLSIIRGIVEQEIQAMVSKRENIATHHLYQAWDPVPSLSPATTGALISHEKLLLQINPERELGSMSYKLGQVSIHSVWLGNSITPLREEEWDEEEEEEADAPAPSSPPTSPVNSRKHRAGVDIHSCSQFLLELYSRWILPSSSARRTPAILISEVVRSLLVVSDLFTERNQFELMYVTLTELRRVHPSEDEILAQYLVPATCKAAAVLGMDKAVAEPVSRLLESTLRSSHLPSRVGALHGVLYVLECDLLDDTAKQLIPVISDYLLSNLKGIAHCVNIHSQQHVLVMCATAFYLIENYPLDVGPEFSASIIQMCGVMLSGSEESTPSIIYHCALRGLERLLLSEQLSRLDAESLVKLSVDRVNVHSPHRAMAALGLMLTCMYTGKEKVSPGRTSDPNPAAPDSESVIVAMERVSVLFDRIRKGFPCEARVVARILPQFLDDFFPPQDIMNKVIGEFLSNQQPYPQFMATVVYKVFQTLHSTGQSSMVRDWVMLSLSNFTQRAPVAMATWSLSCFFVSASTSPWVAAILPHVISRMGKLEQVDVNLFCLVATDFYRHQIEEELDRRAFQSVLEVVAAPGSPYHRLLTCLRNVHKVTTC

As for `OC[C@H]1O[C@H](O[C@H]2O[C@H](CO)[C@@H](O)[C@H](O)[C@H]2O)[C@H](O)[C@@H](O)[C@@H]1O` [TREHALOSE], the inhibition entry in [1], in [2] and in series [3] was “inactive” each time. Moreover, the inhibition entry in the series with Mus musculus [4] and with Mus musculus [5] was “Active” in each case. Besides, the Activity in the series with Mus musculus [6] is 25%. The MSD with Mus musculus [7] turned out to be 94.5 days.
With `Cl.N=C(N)NCCCCCC(=O)O[C@@H]1[C@@H](OC(=O)CCCCCNC(=N)N)[C@@H](O[C@H]2O[C@H](COC(=O)CCCCCNC(=S)Nc3ccc(-c4c5ccc(=O)cc-5oc5cc(O)ccc45)c(C(=O)O)c3)[C@@H](OC(=O)CCCCCNC(=N)N)[C@H](OC(=O)CCCCCNC(=N)N)[C@H]2OC(=O)CCCCCNC(=N)N)O[C@H](COC(=O)CCCCCNC(=S)Nc2ccc(-c3c4ccc(=O)cc-4oc4cc(O)ccc34)c(C(=O)O)c2)[C@H]1OC(=O)CCCCCNC(=N)N`, the Drug uptake entry (in the series on Brain [8]; in the series on Spleen; with Kidney; in the series with Brain [9]; in the series on HeLa [12]; in series [13]) was “Active” throughout. The Drug uptake entry in series [14] and in series [15] was “Active” each time. Further, the Activity entry in the series on Mus musculus [10] and in the series with Mus musculus [11] was “Non-toxic” throughout. The solubility entry in series [16] is “soluble”.
By IC50 is commonly meant the midpoint of a concentration-inhibition curve. With `Cl.N=C(N)NCCCCCC(=O)OC[C@H]1O[C@H](O[C@H]2O[C@H](COC(=O)CCCCCNC(=N)N)[C@@H](OC(=O)CCCCCNC(=N)N)[C@H](OC(=O)CCCCCNC(=N)N)[C@H]2OC(=O)CCCCCNC(=N)N)[C@H](OC(=O)CCCCCNC(=N)N)[C@@H](OC(=O)CCCCCNC(=N)N)[C@@H]1OC(=O)CCCCCNC(=N)N`, the inhibition entry in series [3] and in series [19] was “inactive” each time. The IC50 (in the series on RAW264.7; with HeLa [17]; in series [18]) was below 100 µM each time. Moreover, the solubility result in series [16] was “soluble”.
For the compound `Cl.N=C(N)NCCCCCC(=O)O[C@@H]1[C@@H](OC(=O)CCCCCNC(=N)N)[C@@H](O[C@H]2O[C@H](CO)[C@@H](OC(=O)CCCCCNC(=N)N)[C@H](OC(=O)CCCCCNC(=N)N)[C@H]2OC(=O)CCCCCNC(=N)N)O[C@H](CO)[C@H]1OC(=O)CCCCCNC(=N)N`, the result in the series with Mus musculus [20], with Mus musculus [21] and in the series on Mus musculus [32] was Active. For the same compound, the inhibition result in series [22] is “Dose-dependent effect”; in series [1] (TDE = time-dependent effect), “tde”; in series [23], “Dose-dependent effect”. Moreover, the inhibition result (in series [24]; in series [3]; in the series on Mus musculus [26]; with Mus musculus [27]; in the series on Mus musculus [28]) was “Active” each time. Besides, the IC50 (in the series with RAW264.7; in the series on HeLa [17]; in [18]) was above 100 µM throughout. Further, the Activity result is reported as “Non-toxic” in the series on Mus musculus [25], 14% in the series on Mus musculus [29] and “Non-toxic” in the series on Mus musculus [30]. The inhibition result in series [19] was “inactive”. Also, the solubility entry in series [16] is “soluble”. Further, the MSD with Mus musculus [31] was 98.5 days.
